Data on one molecule can be found in PubChem BioAssay (NCI).

SMILES strings stand for the structures. Values joined by “and” are separate entries in the source; they are usually repeats but may differ in a detail not shown here. Equal entries are not always repeated.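 Results reflect a 48-hour exposure of cells in 96-well plates to compound at five concentrations. GI50 = concentration required for 50% inhibition of growth. TGI: concentration producing complete growth inhibition.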

Among the test systems are EKVX NSCLC; MOLT-4 leukemia; ACHN renal; LXFL 529 NSCLC; NCI-H522 lung; IGROV1 ovarian; KM20L2 colon; RPMI-8226 leukemia; MDA-MB-231 breast.
Common to all, as to assay: growth of human tumour cells (NCI), 48 h

Consider `CCCCCCCCCCCCC(O)C1CCC(C(O)CCCCC(O)CCCCCC2CC(CC(C)=O)C(=O)O2)O1` (stereo not drawn), for which the GI50 with EKVX NSCLC is 1.08 µM; in the test on MOLT-4 leukemia it was 1.94 µM and 2.05 µM; with IGROV1 ovarian, 1.49 µM; in the test on RPMI-8226 leukemia, 1.28 µM and 0.367 µM. Moreover, the TGI was 4.11 µM and 20.8 µM in the test with EKVX NSCLC; 35 µM in the test with MOLT-4 leukemia; 26.1 µM in the test with ACHN renal; 16.3 µM in the test on LXFL 529 NSCLC; 19.9 µM with NCI-H522 lung; 3.1 µM and 26.6 µM in the test with IGROV1 ovarian. The TGI with KM20L2 colon was 19.7 µM; in the test with RPMI-8226 leukemia, 4.73 µM and 18.5 µM; in the test with MDA-MB-231 breast it was 7.38 µM.
